Reference: ChEMBL document CHEMBL4130510, “Cytotoxic Dibohemamines D-F from a Streptomyces Species” (J Nat Prod, 2017)

How the values were obtained:
[1] = system: A549; test: Cytotoxicity against human A549 cells by SRB assay; type: functional, cell-based
[2] = system: HepG2; test: Cytotoxicity against human HepG2 cells by SRB assay; type: functional, cell-based

SMILES: CC(C)=CC(=O)NC1=C(CC2=C(NC(=O)C=C(C)C)N3[C@@H](C)[C@H]4O[C@H]4[C@@]3(C)C2=O)C(=O)[C@]2(C)[C@H](O)C[C@H](C)N12
- IC50 [1]: 20.2 µM
- IC50 [2]: 7.3 µM

SMILES: CC(C)=CC(=O)NC1=C(CC2=C(NC(=O)C=C(C)C)N3[C@@H](C)[C@H]4O[C@H]4[C@@]3(C)C2=O)C(=O)[C@]2(C)C[C@H](O)[C@H](C)N12
- IC50 [1]: 1.1 µM
- IC50 [2]: 0.3 µM

SMILES: COc1cccc2c1C(=O)c1c(O)c3c(c(O)c1C2=O)C[C@@](O)(C(=O)CO)C[C@@H]3O[C@H]1C[C@H](N)[C@H](O)[C@H](C)O1 [DOXORUBICIN]
- IC50 [1]: 1.4 µM

SMILES: CC(C)=CC(=O)NC1=C(CC2=C(NC(=O)C=C(C)C)N3[C@@H](C)[C@H]4O[C@H]4[C@@]3(C)C2=O)C(=O)[C@]2(C)[C@@H]3O[C@@H]3[C@H](C)N12
- IC50 [1]: 39.2 µM
- IC50 [2]: 10.8 µM

SMILES: CC(C)=CC(=O)NC1=CC(=O)[C@]2(C)[C@@H]3O[C@@H]3[C@H](C)N12 [BOHEMAMINE]
- IC50 [1]: 290 µM
- IC50 [2]: 29.7 µM

SMILES: CC(C)=CC(=O)NC1=CC(=O)[C@]2(C)C[C@H](O)[C@H](C)N12 [BOHEMAMINE B]
- IC50 [1]: 502 µM
- IC50 [2]: 181 µM
